From patent publication US10287308B2, “Compounds, compositions, and methods for the treatment of cancers” (priority 2013, dated 2019)

Tests used:
[1] = logP by reverse phase HPLC retention time against a calibration curve; conditions: chromatographic method, Zorbax Eclipse XDB C8, 30° C.
[2] = Maximum tolerated dose used in the mouse PK/PD study; assay type: in vivo; conditions: H460 tumor-bearing mice
[3] = H460 tumor-bearing nude mice, intravenous, dosed at MTD as free drug, 24 hour time point, FIG. 2
Method: Animals were inoculated with 5×10^5 H460 small cell lung cancer cells via subcutaneous injection to the flank. Tumors were allowed to reach an approximate volume of ˜500 mm^3. Animals were then randomized into treatment groups of 3 animals per time point and were dosed at the maximum tolerated dose (MTD). The 24 hour time point was used as a benchmark across compounds
Tumor platinum levels were determined by inductively coupled plasma mass spectrometry (ICP-MS). Tumors were excised from animals and dissolved in fuming nitric acid (60% w/w) by adding four parts nitric acid to 1 part tumor w/w and heating overnight at 60 degrees Centigrade. The resulting digest was diluted 1:10 in ICP-MS analysis buffer (1% nitric acid, 2% Triton® x-100), and directly introduced into the ICP-MS unit by peristaltic pump. The end dilution factor for the samples as introduced to the ICP-MS was 50×.

## CCNC(=O)[O][Pt]([NH2])([NH2])([Cl])([Cl])[O]C(C)=O [Compound 1]
physchem
  chromatographic logP: < 1

## CCNC(=O)[O][Pt]([NH2])([NH2])([Cl])([Cl])[O]C(=O)NCC [Compound 5]
[1]
  Measured LogP: <1
[2]
  Dose (mg/kg), dosed at the maximum tolerated dose (MTD): 30 mg/kg
[3]
  platinum levels in the tumor: higher platinum levels
